Tested on: HCC827 cells
Experiment: Cell imaging, HCC827 cells
Type: cell-based
Conditions: HCC827, 200 nM, 20 and 10 mins
Procedure: The PC-9, HepG2, and HCC827 cells were grown overnight on a 35 mm petri dish with a cover slip. The live cells were incubated with 200 nM of TPE-IQ-2O for 20 and 10 mins. In all the experiments, the cancer cells are fluorescent in solely staining.

CCC[n+]1cc2ccc(C(=C(c3ccc(OC)cc3)c3ccc(OC)cc3)c3ccccc3)cc2c(-c2ccccc2)c1-c1ccccc1 [TPE-IQ-2O, 6-(2,2-bis(4-methoxyphenyl)-1-phenylvinyl)-3,4-diphenyl-2-propylisoquinolin-2-ium]
Fluorescence of stained cells: fluorescent

Reference: patent publication US10935552B2, “Aie luminogens for visualization and treatment of cancer” (THE HONG KONG UNIVERSITY OF SCIENCE AND TECHNOLOGY, priority 2015, dated 2021)
